Assay [1] addresses T1, hormone sensitive lipase, HSL (Rattus norvegicus, UniProt P15304).
T1 construct: Isolated rat fat cells are obtained from epididymal adipose tissue; from tissue; host or cells: rat epididymal adipose tissue (isolated fat cells, Wistar rats)
T1 sequence (P15304 301-1068 limits assumed): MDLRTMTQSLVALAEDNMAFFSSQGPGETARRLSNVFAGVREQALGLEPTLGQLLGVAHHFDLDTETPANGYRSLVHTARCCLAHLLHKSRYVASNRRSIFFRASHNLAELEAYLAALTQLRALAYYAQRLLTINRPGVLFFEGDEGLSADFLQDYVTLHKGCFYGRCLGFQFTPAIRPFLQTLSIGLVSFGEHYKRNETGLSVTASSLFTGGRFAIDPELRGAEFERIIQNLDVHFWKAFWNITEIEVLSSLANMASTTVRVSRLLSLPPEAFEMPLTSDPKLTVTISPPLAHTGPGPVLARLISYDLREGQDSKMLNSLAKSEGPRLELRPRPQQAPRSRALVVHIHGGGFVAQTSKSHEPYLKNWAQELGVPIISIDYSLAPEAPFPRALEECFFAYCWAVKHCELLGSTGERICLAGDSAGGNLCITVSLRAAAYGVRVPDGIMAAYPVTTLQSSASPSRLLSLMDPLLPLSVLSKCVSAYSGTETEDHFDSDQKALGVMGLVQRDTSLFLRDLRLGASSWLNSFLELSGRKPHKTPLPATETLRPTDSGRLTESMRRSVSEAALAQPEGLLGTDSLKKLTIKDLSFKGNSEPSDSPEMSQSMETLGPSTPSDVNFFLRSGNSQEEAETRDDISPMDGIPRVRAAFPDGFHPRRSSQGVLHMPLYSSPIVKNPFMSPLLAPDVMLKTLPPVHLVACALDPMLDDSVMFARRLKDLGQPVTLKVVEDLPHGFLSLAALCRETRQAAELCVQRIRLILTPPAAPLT
Briefly: HSL inhibition assay (partially purified HSL, [3H]trioleoylglycerol substrate). In kind it is biochemical. The conditions noted are these: partially purified HSL from rat fat cells; 37° C., 30 min. The protocol:
Preparation of the partially purified HSL:
Isolated rat fat cells are obtained from epididymal adipose tissue from untreated male rats (Wistar, 220-250 g) by collagenase treatment in accordance with published methods (e.g. S, Nilsson et al., Anal. Biochem. 158, 1986, 399-407; G. Fredrikson et al., J. Biol. Chem. 256, 1981, 6311-6320; H. Tornquist et al., J. Biol. Chem. 251, 1976, 813-819). The fat cells from 10 rats are washed three times by flotation with 50 ml of homogenization buffer ([…] Tris/HCl, pH 7.4, 0.25 M sucrose, 1 mM ETDA, 1 mM DTT, 10 μg/ml leupeptin, 10 μg/ml antipain, 20 μg/ml pepstatin) each time and finally taken up in 10 ml of homogenization buffer. The fat cells are homogenized in a Teflon-in-glass homogenizer (Braun-Melsungen) by 10 strokes at 1500 rpm and 15° C. The homogenate is centrifuged (Sorvall SM24 tubes, 5000 rpm, 10 min, 4° C.). The subnatant between the layer of fat at the top and the pellet is removed and the centrifugation is repeated. The subnatant resulting therefrom is centrifuged again (Sorvall SM24 tubes, 20 000 rpm, 45 min, 4° C.). […] After incubation at 4° C. for 60 min (shaking at intervals of 15 min), the mixture is centrifuged (Sorvall SM24 tubes, 3000 rpm, 10 min, 4° C.). The supernatant is adjusted to pH 5.2 by adding glacial acetic acid and is incubated at 4° C. for 30 min. The precipitates are collected by centrifugation (Sorvall SS34, 12 000 rpm, 10 min, 4° C.) and suspended in 2.5 ml of 20 mM Tris/HCl, pH 7.0, 1 mM EDTA, 65 mM NaCl, 13% sucrose, 1 mM DTT, 10 μg/ml leupeptin/pepstatin/antipain. The suspension is dialyzed against 25 mM Tris/HCl, pH 7.4, 50% glycerol, 1 mM DTT, 10 μg/ml leupeptin, pepstatin, antipain at 4° C. overnight and then loaded onto a hydroxiapatite column (0.1 g per 1 ml of suspension, equilibrated with 10 mM potassium phosphate, pH 7.0, 30% glycerol, 1 mM DTT). The column is washed with four volumes of equilibration buffer at a flow rate of 20 to 30 ml/h. The HSL is eluted with one volume of equilibration buffer containing 0.5 M potassium phosphate and then dialyzed (see above) and concentrated 5- to 10-fold by ultrafiltration (Amicon Diaflo PM 10 Filter) at 4° C. The partially purified HSL can be stored at −70° C. for 4 to 6 weeks.
To prepare the substrate, 25-50 μCi of [3H]trioleoylglycerol (in toluene), 6.8 μmol of unlabeled trioleoylglycerol and 0.6 mg of phospholipids (phosphatidylcholine/phosphatidylinositol 3:1 w/v) are mixed, dried with N2 and then taken up in 2 ml of 0.1 M KPi (pH 7.0) by ultrasound treatment (Branson 250, microtip, setting 1-2, 2×1 min with an interval of 1 min). After addition of 1 ml of KPi and renewed ultrasound treatment (4×30 sec on ice with intervals of 30 sec), 1 ml of 20% BSA (in KPi) is added (final concentration of trioleoylglycerol 1.7 mM). For the reaction, 100 μl of substrate solution are pipetted into 100 μl of HSL solution (HSL prepared as above, diluted in 20 mM KPi, pH 7.0, 1 mM EDTA, 1 mM DTT, 0.02% BSA, 20 μg/ml pepstatin, 10 μg/ml leupeptin) and incubated at 37° C. for 30 min. Addition of 3.25 ml of methanol/chloroform/heptane (10:9:7) and of 1.05 ml of 0.1 M K2CO3, 0.1 M boric acid (pH 10.5) is followed by thorough mixing and finally centrifugation (800×g, 20 min). After phase separation, one equivalent of the upper phase (1 ml) is removed and the radioactivity is determined by liquid scintillation measurement.
Substances are normally tested in four independent mixtures. The inhibition of the HSL enzymatic activity by a test substance is determined by comparing with an uninhibited control reaction. The IC50 is calculated from an inhibition plot with at least 10 concentrations of the test substance. The GRAPHIT, Elsevier-BIOSOFT software package is used to analyze the data.

A further assay has as its target T2, endothelial lipase (EL) (Homo sapiens, UniProt Q9Y5X9).
T2 construct: made in house; host or cells: recombinant cell lines CHO, HEK293 (conditioned medium, concentrated)
T2 sequence (Q9Y5X9 21-500): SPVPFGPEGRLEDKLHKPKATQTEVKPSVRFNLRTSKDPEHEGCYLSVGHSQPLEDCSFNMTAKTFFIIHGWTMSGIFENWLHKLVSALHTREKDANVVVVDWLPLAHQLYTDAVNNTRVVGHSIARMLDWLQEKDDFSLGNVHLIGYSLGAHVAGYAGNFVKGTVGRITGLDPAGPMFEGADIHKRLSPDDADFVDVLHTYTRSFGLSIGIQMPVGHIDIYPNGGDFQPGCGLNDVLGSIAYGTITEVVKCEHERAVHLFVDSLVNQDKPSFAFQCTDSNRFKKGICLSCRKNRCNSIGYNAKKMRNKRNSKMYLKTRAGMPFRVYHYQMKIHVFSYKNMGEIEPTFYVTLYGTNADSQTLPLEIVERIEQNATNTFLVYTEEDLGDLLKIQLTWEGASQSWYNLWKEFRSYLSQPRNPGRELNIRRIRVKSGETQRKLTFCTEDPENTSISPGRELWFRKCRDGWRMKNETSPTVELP
Briefly: EL inhibition assay (conditioned medium of recombinant cell lines, Bodipy phospholipid substrate). In kind it is biochemical. The conditions noted are these: EL from conditioned medium (CHO, HEK293); 37° C., 60 minutes. The source says: EL is released as secretory protein in high concentration into cell culture medium (conditioned medium) by recombinant cell lines (CHO, HEK293). This is employed as enzyme solution after concentration.
The phospholipase-specific substrate 1,2-bis(4,4-difluoro-5,7-dimethyl-4-bora-3a,4a-diaza-s-indacene-3-undecanoyl)-sn-glycero-3-phosphocholine, (manufacturer Molecular Probes) is used to characterize the enzymatic activity of endothelial lipase and the effect of inhibitors. Hydrolysis of the A1 ester linkage of this phospholipid by the enzyme liberates the fluorescent dye Bodipy which can be detected after separation by thin-layer chromatography on an HPTLC plate (silica gel 60, Merck) or directly in the reaction vessel by measuring the fluorescence.
The substrate solution is prepared by taking up 100 μg of 1,2-bis(4,4-difluoro-5,7-dimethyl-4-bora-3a,4a-diaza-s-indacene-3-undecanoyl)-sn-glycero-3-phospho-choline (manufacturer Molecular Probes), 2.4 mg of tripalmitin (Sigma) and 7.9 mg of DOP—choline (1,2-dioleoyl-sn-glycero-3-phosphocholine) in 393 μl of chloroform and then transferring 157 μl into a fresh reaction vessel. After evaporation of the solvent, the lipid mixture is dissolved in 4 ml of 200 mM TRIS-HCl, 150 mM sodium chloride, pH=7.4, by sonication twice. The subsequent enzymic reaction takes place at 37° C. for 60 minutes. For this purpose, 45 μl of the substrate solution are incubated with 1 μl of inhibitor of appropriate concentration (dissolved in DMSO, pure DMSO solution is used as control) and 5 μl of enzyme solution (conditioned medium). Then 3 μl of the assay mixture are loaded onto an HPTLC plate (silica gel 60, Merck), and the liberated fluorescent dye is separated for detection with an eluent (diethyl ether:petroleum benzene:acetic acid [78:22:1]). After evaporation of the eluent, the plate is read in a fluorescence scanner. An increased release of the fluorescent dye in the uninhibited reaction is to be observed as a measure of the enzymic activity.
The enzymatic activity is reduced as a function of the inhibitor concentration used, and the inhibitor concentration at which a half-maximum enzymatic activity is observed is called IC50.

`Cc1cc(O)nc2c1c(OC(=O)N1CCC(C(F)(F)F)CC1)nn2C(=O)N1CCN(C)CC1` [Example 15, 6-Hydroxy-4-methyl-1-(4-methylpiperazine-1-carbonyl)-1H-pyrazolo[3,4-b]pyridin-3-yl 4-trifluoromethylpiperidine-1-carboxylate]: in assay [1], the IC50 (as a rule, the midpoint of a concentration-inhibition curve) worked out at 1.5 µM.
Turning to `O=C(NCc1ccccc1)Oc1nn(C(=O)NCc2ccccc2)c2cc(Cl)ccc12` [Example 11b, 1-benzylcarbamoyl-6-chloro-1H-indazol-3-yl benzyl carbamate], the half-maximal inhibitory concentration (IC50) on endothelial lipase (EL) amounted to 1.47 µM.
Regarding `Cc1cc(O)nc2c1c(OC(=O)N1CCC(C)CC1)nn2C(=O)N1CCC(C(F)(F)F)CC1` [Example 16, 6-Hydroxy-4-methyl-1-(4-trifluoromethylpiperidine-1-carbonyl)-1H-pyrazolo-[3,4-b]pyridin-3-yl 4-methylpiperidine-1-carboxylate], in assay [1], the concentration for half-maximal inhibition (IC50) worked out at 0.58 µM.
Same read-out and setting: the result for `O=C(Oc1nn(C(=O)N2CCc3sccc3C2)c2cc(F)ccc12)N1CCc2sccc2C1` [Example 2, 1-(6,7-Dihydro-4H-thieno[3,2-c]pyridine-5-carbonyl)-6-fluoro-1H-indazol-3-yl 6,7-dihydro-4H-thieno[3,2-c]pyridine-5-carboxylate] reads 1.11 µM.
Compound `O=C(Oc1nn(C(=O)N2CCN(c3ccccc3)CC2)c2cc(F)ccc12)N1CCN(c2ccccc2)CC1` [Example 1a, 6-Fluoro-1-(4-phenylpiperazine-1-carbonyl)-1H-indazol-3-yl 4-phenylpiperazine-1-carboxylate] showed a half-maximal inhibitory concentration (IC50) in assay [1] of 0.32 µM.
As to `CC1CCN(C(=O)Oc2nn(C(=O)N3CCC(C)CC3)c3cc(F)ccc23)CC1` [Example 9b, 6-fluoro-1-(4-methylpiperidine-1-carbonyl)-1H-indazol-3-yl 4-methylpiperidine-1-carboxylate], in assay [1], the 50% inhibitory concentration (IC50) was 1.15 µM.
Same read-out and setting: the result for `O=C(N1CCN(c2ccccc2)CC1)n1c(=O)c2ccc(F)cc2n1C(=O)N1CCN(c2ccccc2)CC1` [Example 1b, 6-fluoro-1,2-bis(4-phenylpiperazine-1-carbonyl)-1,2-dihydroindazol-3-one] reads 0.62 µM.
With `Cc1ccccc1CNC(=O)n1c(=O)c2ccccc2n1C(=O)NCc1ccccc1C` [Example 13, 3-Oxo-3H-indazole-1,2-dicarboxylic acid bis(2-methylbenzylamide)], at endothelial lipase (EL), the IC50 was determined as 0.84 µM.
The same measure, in the same setting: the value for `Cc1ccccc1CNC(=O)n1c(=O)c2ccccc2n1C(=O)N1CCC(C)CC1` [Example 12, 1-(4-Methylpiperidine-1-carbonyl)-3-oxo-1,3-dihydroindazole-2-carboxylic acid 2-methylbenzylamide] was 0.22 µM.
Consider `CC1CCN(C(=O)Oc2nn(C(=O)N3CCC(C(F)(F)F)CC3)c3cc(N)ccc23)CC1` [Example 14, 6-Amino-1-(4-trifluoromethylpiperidine-1-carbonyl)-1H-indazol-3-yl 4-methyl-piperidine-1-carboxylate], for which the IC50 in assay [1] came to 1 µM.
As to `CCCCCCNC(=O)Oc1nn(C(=O)NCCCCCC)c2cc(Cl)ccc12` [Example 10b, 6-chloro-1-hexylcarbamoyl-1H-indazol-3-yl hexylcarbamate], the IC50 on endothelial lipase (EL) was 0.06 µM.
Still for that read-out and setting: the result for “6-Chloro-3-oxo-3H-indazole-1,2-dicarboxylic acid bishexylamide [Example 10a]” reads 0.05 µM.
On the same count and under the same terms, the value for “6-Chloro-3-oxo-3H-indazole-1,2-dicarboxylic acid bisbenzylamide [Example 11a]” was 0.26 µM.

These data come from patent publication US7772268B2, “Diacyl indazole derivatives as lipase and phospholipase inhibitors” (Sanofi-Aventis, priority 2005, dated 2010).
